Laboratory results reported in patent US11078462B2, “Perivascular stromal cells from primate pluripotent stem cells” (ReCyte Therapeutics, Inc., priority 2014, dated 2021).
Where a name gives a salt, the structure may show the parent alone.

System: HUVEC+017-PC-M co-cultures
Experiment: Kit co-culture assay to study angiogenesis in vitro (tube formation on MATRIGEL)
Assay type: cell-based, human
Procedure: A kit has been developed to provide a unique, robust co-culture assay to study angiogenesis in vitro. In this model system, we utilize a unique perivascular stromal cell line (017-PC-M) that when co-cultured with human umbilical vein endothelial cells (HUVEC) results in the rapid formation of large angiogenic networks with long-term stability of 4-6 days without the need for additional growth factors and complex media supplements.
VASCULIFE® assay media: VASCULIFE® basal media plus 10 mM L-glutamine (final concentration)
Assay Protocol: • 1. Four days (Day −4) prior to assay, HUVECs should be thawed and seeded at 3.5×10^4 cells per cm^2 into a 150 cm^2 tissue culture flask containing VASCULIFE® growth media. Incubate cells at 37° C. and 5% CO2. Exchange full volume of media every 1-2 days. • 2. Two days (Day −2) prior to assay, PC-M cells should be thawed and seeded at 10×10^4 cells per cm^2 into a 150 cm^2 tissue culture flask containing VASCULIFE® growth media. Incubate cells at 37° C. and 5% CO2. Exchange full volume of media every 1-2 days. • 3. At Day 0, prepare 96-well plate with MATRIGEL® coating of 50 μL per well. Let plate warm for at least 1 hour prior to seeding cells. • 4. Prepare assay solution: dilute L-glutamine into VASCULIFE® medium. • 5. On Day 0, harvest both HUVECs and PC-M cells. Recommended: Use 5-7.5 mL ACCUTASE® treatment for 3-5 minutes to detach cells, then quench Accutase® with an equivolume of Vasculife® growth media before pelleting cells. • 6. Prepare VASCULIFE® assay media (500 μL per each triplicate condition). • 7. Pellet cells at 250-350 rpm for 5 minutes at room temperature. • 8. Decant media and re-suspend into 1 mL of VASCULIFE® assay media. • 9. Measure cell concentration and viability:
• 10. Mix cells at a ratio of 3:1 HUVECs: 017-PC-M cells and seed at a final density of 37,500 cells per well. For one set of triplicates, mix approximately 85,000 HUVECs with 28,000 017-PC-M cells. • 11. Allow co-culture to adhere at 37° C. for 3-4 hours. • 12. […]

VEGF
formation of tubes after addition of VEGF to the assay media (VEGF concentrations ≤2.5 ng/mL or ≥10 ng/mL, monocultures and/or co-cultures): may inhibit formation of tubes

Cc1ccc(C(=O)Nc2ccc(S(=O)(=O)O)c3cc(S(=O)(=O)O)cc(S(=O)(=O)O)c23)cc1NC(=O)c1cccc(NC(=O)Nc2cccc(C(=O)Nc3cc(C(=O)Nc4ccc(S(=O)(=O)O)c5cc(S(=O)(=O)O)cc(S(=O)(=O)O)c45)ccc3C)c2)c1 [Suramin, suramin hexasodium salt]
reduce tube formation (Addition of 50 μM Suramin): > 90%

basic FGF: basic fibroblast growth factor added to the assay media
tube formation after addition of basic FGF to the assay media (concentrations ≥10 ng/mL, monocultures of HUVECs, of 017-PC-M cells and/or co-cultures): little to no tube formation
